Columns and labels:
[1] = system: gallic acid-producing Escherichia coli strain M7032 (pUXPEaLT_HFM145_tphA2A3BA1_tpaK); assay: Production of gallic acid from terephthalic acid salt in jar fermentor culture; format: cell-based; details: for Gallic acid: 0.6 M salt solution as raw material, 48 hours after the start of the main culture; for Ratio of the capacity in production (gallic acid): 48 hours, disodium terephthalate as 100%
Experimental: A gallic acid plasmid pUXPEaLT_HFM145_tphA2A3BA1_tpaK constructed in Reference Example 2 was introduced into Escherichia coli M7032 strain by a transformation method to obtain a gallic acid-producing Escherichia coli strain M7032 (pUXPEaLT_HFM145_tphA2A3BA1_tpaK). Subsequently, in the same manner as described in Example 2, the preculture of this gallic acid-producing bacterium was prepared and then merely 2% of this preculture was inoculated in a main culture medium to carry out main culture in the above condition. When the bacterial cell turbidity reached about 7 at an absorbance of 600 nm, an inducer m-toluic acid was added such that the final concentration thereof came to 1 mM to express terephthalate 1,2-dioxygenase protein, terephthalate 1,2-dioxygenase reductase protein, terephthalate dihydrodiol dehydrogenase protein, terephthalic acid transporter protein and improved para-hydroxybenzoate hydroxylase. The glucose concentration was measured with time. When the glucose concentration reached 0, the glucose and substrate mixed solution was administered.
Sampling was carried out 48 hours after the start of the main culture. Each of the samples was subjected to analysis by an LC-TOF type mass spectrometer (Waters Corporation, LCT Premier XE). Identification of gallic acid and protocatechuic acid was carried out with a combination of retention time of high performance liquid chromatography and an accurate mass value from the mass spectrometer, comparing to a standard sample of terephthalic acid and gallic acid.

[2] = Solubility of terephthalic acid salts in water; format: physicochemical
Experimental: 2.99 g (0.018 mol) of terephthalic acid (in a form of powder, manufactured by Sigma-Aldrich Japan; hereinafter, unless otherwise specified, reagents used were ones manufactured by Sigma-Aldrich Japan) and 0.036 mol of potassium hydroxide (in a form of granule) were put in a 50 mL-glass beaker. Distilled water was filled to obtain a volume of about 15 mL. The resulting mixture was covered with aluminum foil as a lid, heated at 50° C. for 60 minutes while stirred by a hot stirrer (manufactured by AS ONE Corporation), and allowed to cool to 30° C. After stirring at 30° C. for 120 minutes or more and confirming the precipitate remained in the solution, 1 mL of the solution was collected and subjected to centrifugation using a high speed micro centrifuge (manufactured by Tomy Seiko Co., Ltd.) (30° C., 14000 rpm (17800 g), 30 seconds) to collect the supernatant.
The concentration of terephthalic acid in this supernatant was measured and regarded as the solubility of dipotassium terephthalate. With regard to the measurement of the concentration of terephthalic acid, the sample was diluted 16,000-fold with 2.5% aqueous acetonitrile solution and analyzed in separation conditions of Table 1 using high performance liquid chromatography (Waters Corporation, LCT Premier XE). Thereafter, the concentration was calculated on the basis of a ratio of the area of terephthalic acid peaks using aqueous terephthalic acid solution with a known concentration as a control.

[3] = Solubility of terephthalic acid salts in ethylene glycol; format: physicochemical; details: for concentration of terephthalate in saturated ethylene glycol solvent: heated at 100° C. for 60 minutes, cooled to 30° C. or less, filtered; for solubility: organic solvent or mixture, same method as Example 1
Experimental: 4.15 g of terephthalic acid (0.025 mol) was placed in a 200 mL glass beaker and then 0.050 mol of potassium hydroxide (in a form of granule), 0.050 mol of sodium hydroxide (in a form of granule), or 0.025 mol of potassium hydroxide, and 0.025 mol of sodium hydroxide were placed thereto. Ethylene glycol was filled to obtain a volume of about 100 mL. The resulting mixture was covered with aluminum foil as a lid, heated at 100° C. for 60 minutes while stirred by a hot stirrer, and allowed to cool to 30° C. or less. These solutions were filtered with a filter paper (Grade 540 manufactured by Whatman) to obtain an ethylene glycol solvent saturated with the terephthalate.
The concentration of each of the terephthalates contained in such a solvent was 0.23 M in a dipotassium terephthalate saturated solution, 0.11 M in a disodium terephthalate saturated solution, and 0.20 M in a 1-potassium 4-sodium terephthalate saturated solution.

[4] = 30 °C, water, thermodynamic from solid, in water at 30° C., rounded values of the summary, read-out: solubility in water at 30° C.
[5] = 30 °C, water, thermodynamic from solid, in water, 30° C., read-out: Solubility

SMILES	Gallic acid [1] [g/L]	Ratio of the capacity in production (gallic acid) [1] [%]	solubility [2] [mM]	solubility in water at 30° C. [2]	solubility in ethylene glycol [3] [mM]	concentration of terephthalate in saturated ethylene glycol solvent [3] [M]	solubility [3] [mM]	solubility [2, 4] [mM]	solubility [2, 5] [mM]
N.O=C([O-])c1ccc(C(=O)O)cc1.[K+] [1-potassium 4-ammonium terephthalate]	8.5	112	845	about 0.85 M					
O=C([O-])c1ccc(C(=O)[O-])cc1.[K+].[Na+] [1-potassium 4-sodium terephthalate]	8.4	111	956	about 0.96 M	205				
O=C([O-])c1ccc(C(=O)[O-])cc1.[K+].[K+] [Dipotassium terephthalate, dipotassium terephthalate]	8.6	113				0.23	231	~1000	1010
O=C([O-])c1ccc(C(=O)[O-])cc1.[Na+].[Na+] [Disodium terephthalate, disodium terephthalate, reference compound]	7.6	100				0.11	109	~630	630
